Data on 23 compounds can be found in patent publication US20050159599A1, “Cyclic compound, process for producing the same, and pest control agent” (priority 2002, published 2005).

The structures appear in SMILES notation.

What all share (format): in vivo
Test [1] has as its system Spodoptera litura. The experiment in a line: Insecticidal effect for Spodoptera litura by immersion treatment of host crop root (Test Example 4). Particulars: 25 ppm, soybean root immersion 5 days, second-instar larvae of Spodoptera litura, fifth day after; for pest or weed control at 25 ppm: 120 h, read-out: rate of dead pests (%). Put shortly: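 Soil was washed from the roots of soybean plants at the primary-leaf stage, and the roots were immersed in a pesticidal solution held in a light-shielded 100 ml Erlenmeyer flask. The solution was made from acetone containing Tween 20, diluted with ion-exchange water. Five days after root immersion, two primary leaves were cut and placed in a 180 ml cup with ten second-instar Spodoptera litura larvae, then kept at 25° C. Survivors were counted five days later. The rate of dead pests (%) was calculated as dead pests divided by test pests, times 100.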

The subject of test [2] is Plutella xylostella. The experiment in a line: Insecticidal effect for Plutella xylostella by immersion treatment of host crop (Test Example 1). Particulars: cabbage leaf dipped, second-instar larvae of Plutella xylostella, fifth day after; for rate of dead pests (%): 100 ppm; for pest or weed control at 100 ppm: foliar, 120 h, read-out: rate of dead pests (%). How it is done: Insecticidal Effect for Plutella xylostella by Immersion Treatment of Host Crop One true leaf of 7 to 8-leave stage cabbage was cut off and dipped in a pesticidal solution for a few seconds, which was prepared by dissolving 5 mg of test compound (represented by the compound Nos. in the above Examples) in 0.5 ml of acetone containing Tween 20 (trade name) and then diluting it to the prescribed concentration (100 ppm) with Dain (trade name, sticker) water diluted 5000-fold. After drying the pesticidal solution, the leaf was put into an ice cream cup (180 ml), and ten second-instar larvae of Plutella xylostella were set free therein. The cup was left in a temperature-controlled breeding room (24° C.). On the fifth day after, the number of surviving Plutella xylostella was examined. The rate of dead pests was calculated by the following formula. rate of dead pests (%)=(number of dead pests/number of test pests)×100

Test [3] has as its system Plutella xylostella. The experiment in a line: Insecticidal effect for Plutella xylostella by immersion treatment of host crop root (Test Example 3). Particulars: 25 ppm, cabbage root immersed 5 days, ten second-instar larvae on stem and leaves, counted on the fifth day, 24° C.; for pest or weed control at 25 ppm: Plutella xylostella, 120 h, read-out: rate of dead pests (%). As to the method:
Insecticidal Effect for Plutella xylostella by Immersion Treatment of Host Crop Root
Roots of 4-leave stage cabbage was washed with tap water to remove soil, and then immersed in a pesticidal solution which was prepared by dissolving 5 mg of test compound (represented by the compound Nos. in the above Examples) in 0.5 ml of acetone containing Tween 20 (trade name) and then diluting it to the prescribed concentration (25 ppm) with ion-exchange water, and which was filled in a light-shielded Erlenmeyer flask (100 ml). On the fifth day after immersion of root, the root was cut off, and the stem and leaves were put into an ice cream cup (180 ml). Ten second-instar larvae of Plutella xylostella were set free therein, and the cup was left in a temperature-controlled breeding room (24° C.). On the fifth day after, the number of surviving Plutella xylostella was examined. The rate of dead pests was calculated by the following formula. rate of dead pests (%)=(number of dead pests/number of test pests)×100

Test [4] concerns Spodoptera litura. Description: Insecticidal effect for Spodoptera litura by spraying treatment to host crop (Test Example 2). Particulars: 100 ppm, sprayed on soybean, third-instar larvae of Spodoptera litura, fifth day after; for pest or weed control at 100 ppm: 120 h, read-out: rate of dead pests (%). The procedure, abridged:
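Ten third-instar larvae held at 25° C. on two excised primary soybean leaves previously sprayed to dripping with 100 ppm test solution. Mortality (%) calculated from dead versus tested larvae on the fifth day.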

The next test relates to Tetranychus urticae. The experiment in a line: Acaricidal effect for Tetranychus urticae (Test Example 5). The settings on record: 100 ppm (table); spray on kidney bean with ten female imagoes; survivors counted on second and seventh day, 25° C. How it is done:
Acaricidal Effect for Tetranychus urticae
Ten female imagoes Tetranychus urticae were set free on a kidney bean wherein primary leaves had just developed. On the following day, a pesticidal solution, which was prepared by dissolving 5 mg of test compound (represented by the compound Nos. in the above Examples) in 0.5 ml of acetone containing Tween 20 ([…]) with Dain (trade name, sticker) water diluted 5000-fold, was sprayed with spray gun in the amounts wherein the pesticidal solution dripped. The kidney bean was left in a temperature-controlled breeding room (25° C.). On the second and seventh day after treatment, the number of surviving Tetranychus urticae was examined. The rate of decrease was calculated by the following formula. rate of decrease (%)=(1−(S2/(5.59×(10+(10+S1)/2+S1))))×100 In the above formula, • S1; the number of surviving imagoes on the second day after • S2; the number of surviving pests on the seventh day after […]

With `O=C(c1c(F)cccc1F)N1COCN(c2ccc([S+]([O-])C(F)(F)C(F)Cl)cc2F)C1=O` (centres unmarked) [I-8], the “rate of dead pests (%)” value in the test on Spodoptera litura [1], in the test with Plutella xylostella [2], in the test with Plutella xylostella [3] and with Spodoptera litura [4] was 100% throughout.

As for `O=C(c1c(F)cccc1F)N1COCN(c2ccc([S+]([O-])C(F)(F)C(F)Cl)cc2)C1=O` (centres unmarked) [I-11], the “rate of dead pests (%)” value in the test with Spodoptera litura [1], with Plutella xylostella [2], with Plutella xylostella [3] and with Spodoptera litura [4] was 100% each time.

For `O=C(c1c(F)cccc1F)N1COCN(c2ccc([S+]([O-])C(F)(F)C(F)F)cc2)C1=O` (centres unmarked) [I-20], the “rate of dead pests (%)” value worked out at 95% in the test on Spodoptera litura [1], 100% with Plutella xylostella [2], 100% in the test with Plutella xylostella [3] and 100% in the test on Spodoptera litura [4].

Turning to `CSc1ccc(N2COCN(C(=O)c3c(F)cccc3F)C2=O)c(F)c1` [I-28], the “rate of dead pests (%)” value with Spodoptera litura [1], with Plutella xylostella [2], with Plutella xylostella [3] and in the test on Spodoptera litura [4] was 100% each time.

For the compound `O=C(c1c(F)cccc1F)N1COCN(c2ccc(SCC(F)(F)F)cc2F)C1=O` [I-34], the “rate of dead pests (%)” value with Plutella xylostella [2], in the test on Plutella xylostella [3] and in the test on Spodoptera litura [4] was 100% in each case.

Take `O=C(c1c(F)cccc1F)N1COCN(c2ccc(SC(F)F)cc2F)C1=O` [I-41, 3-(2,6-difluorobenzoyl)-5-[4-(difluoromethylthio)-2-fluorophenyl]tetrahydro-4H-1,3,5-oxadiazin-4-one]: the pest or weed control at 25 ppm in the test on Spodoptera litura [1] and in the test on Plutella xylostella [3] was 100% in each case. The pest or weed control at 100 ppm with Plutella xylostella [2] and with Spodoptera litura [4] was 100% each time.

`O=C(c1c(F)cccc1F)N1COCN(c2ccc([S+]([O-])C(F)(F)F)c(F)c2)C1=O` (centres unmarked) [I-81]: the “rate of dead pests (%)” value with Plutella xylostella [2], in the test with Plutella xylostella [3] and in the test on Spodoptera litura [4] was 100% each time.

In the case of `CSc1ccc(N2COCN(C(=O)c3c(F)cccc3Cl)C2=O)c(F)c1` [I-205], the “rate of dead pests (%)” value in the test on Spodoptera litura [1] is given as 100%; in the test with Plutella xylostella [2] it was 100%; in the test on Plutella xylostella [3] it was 90%; in the test with Spodoptera litura [4], 100%.

As to `O=C(c1c(F)cccc1Cl)N1COCN(c2ccc([S+]([O-])C(F)(F)F)cc2F)C1=O` (centres unmarked) [I-222], the “rate of dead pests (%)” value with Spodoptera litura [1], in the test on Plutella xylostella [2], with Plutella xylostella [3] and in the test on Spodoptera litura [4] was 100% each time.

For the compound `CN1CN(C(=O)c2c(F)cccc2F)C(=O)N(c2ccc(Oc3ccc(C(F)(F)F)cc3Cl)cc2F)C1` [III-21], the “rate of dead pests (%)” value in the test with Spodoptera litura [4] is on record as 100%. The “rate of decrease (%)” value in the test on Tetranychus urticae is 99%.

Turning to `O=C(c1c(F)cccc1F)N1CN(S(=O)(=O)C(F)(F)F)CN(c2ccc(Oc3ccc(C(F)(F)F)cc3Cl)cc2F)C1=O` [III-35], in the test with Spodoptera litura [4], the “rate of dead pests (%)” value was 100%. For the same compound, the “rate of decrease (%)” value in the test on Tetranychus urticae stood at 97%.

As to `COC(=O)C(=O)N1CN(C(=O)c2c(F)cccc2F)C(=O)N(c2ccc(Oc3ccc(C(F)(F)F)cc3Cl)cc2F)C1` [III-37, Methyl 2-[3-[4-(2-chloro-4-trifluoromethylphenoxy)-2-fluorophenyl]-5-(2,6-difluorobenzoyl)hexahydro-4-oxo-1,3,5-triazin-1-yl]-2-oxoacetate], in the test with Spodoptera litura [1], the pest or weed control at 25 ppm came to 95%. For the same compound, the pest or weed control at 100 ppm with Spodoptera litura [4] is 100%. In addition, the “rate of decrease (%)” value in the test with Tetranychus urticae was 97%.

As for `CNC(=O)C(=O)N1CN(C(=O)c2c(F)cccc2F)C(=O)N(c2ccc(Oc3ccc(C(F)(F)F)cc3Cl)cc2F)C1` [III-42], the “rate of dead pests (%)” value in the test with Spodoptera litura [4] is reported as 100%. The “rate of decrease (%)” value with Tetranychus urticae is reported as 98%.

For `C[S+]([O-])CC(=O)N1CN(C(=O)c2c(F)cccc2F)C(=O)N(c2ccc(Oc3ccc(C(F)(F)F)cc3Cl)cc2F)C1` (centres unmarked) [III-46], in the test on Tetranychus urticae, the “rate of decrease (%)” value is on record as 97%.

On to `CONC(=O)C(=O)N1CN(C(=O)c2c(F)cccc2F)C(=O)N(c2ccc(Oc3ccc(C(F)(F)F)cc3Cl)cc2F)C1` [III-49], for which the “rate of dead pests (%)” value in the test on Spodoptera litura [1] stood at 95%; in the test on Spodoptera litura [4], 100%. For the same compound, the “rate of decrease (%)” value in the test with Tetranychus urticae is 96%.

Turning to `CS(=O)(=O)N1CN(C(=O)c2c(F)cccc2F)C(=O)N(c2cc(Cl)c(F)c(Cl)c2F)C1` [III-58], the “rate of dead pests (%)” value is given as 100% in the test on Spodoptera litura [1], 100% in the test on Plutella xylostella [2], 90% in the test with Plutella xylostella [3] and 100% in the test on Spodoptera litura [4].

In the case of `COC(=O)C(=O)N1CN(C(=O)c2c(F)cccc2F)C(=O)N(c2cc(Cl)c(F)c(Cl)c2F)C1` [III-64], the “rate of dead pests (%)” value with Spodoptera litura [1] is reported as 90%; in the test on Plutella xylostella [2], 100%; in the test on Plutella xylostella [3] it was 90%; in the test with Spodoptera litura [4], 100%.

As for `CN1CN(C(=O)c2c(F)cccc2F)C(=O)N(c2ccc(SC(F)F)cc2F)C1` [III-148, 1-(2,6-difluorobenzoyl)-3-[4-(difluoromethylthio)-2-fluorophenyl]-5-methyltetrahydro-1,3,5-triazin-2(1H)-one], the pest or weed control at 25 ppm in the test on Spodoptera litura [1] and with Plutella xylostella [3] was 100% in each case. In addition, the pest or weed control at 100 ppm in the test on Plutella xylostella [2] and with Spodoptera litura [4] was 100% in each case.

With `CC(=O)N1CN(C(=O)c2c(F)cccc2F)C(=O)N(c2ccc(SC(F)F)cc2F)C1` [III-149], the “rate of dead pests (%)” value with Spodoptera litura [1] was 100%; in the test with Plutella xylostella [2], 100%; with Plutella xylostella [3], 95%; in the test with Spodoptera litura [4], 100%.

As to `CN1CN(C(=O)c2c(F)cccc2F)C(=O)N(c2ccc([S+]([O-])C(F)F)cc2F)C1` (centres unmarked) [III-152, 1-(2,6-difluorobenzoyl)-3-[4-(difluoromethylsulfinyl)-2-fluorophenyl]-5-methyltetrahydro-1,3,5-triazin-2(1H)-one], the pest or weed control at 25 ppm in the test with Spodoptera litura [1] and in the test on Plutella xylostella [3] was 100% each time. The pest or weed control at 100 ppm in the test on Plutella xylostella [2] and in the test with Spodoptera litura [4] was 100% in each case.

With `CC(=O)N1CN(C(=O)c2c(F)cccc2F)C(=O)N(c2ccc([S+]([O-])C(F)F)cc2F)C1` (centres unmarked) [III-153], the “rate of dead pests (%)” value in the test on Spodoptera litura [1], in the test with Plutella xylostella [2], with Plutella xylostella [3] and with Spodoptera litura [4] was 100% in each case.

Take `CS(=O)(=O)N1CN(C(=O)c2c(F)cccc2F)C(=O)N(c2ccc([S+]([O-])C(F)F)cc2F)C1` (centres unmarked) [III-154]: the “rate of dead pests (%)” value in the test with Spodoptera litura [1], in the test on Plutella xylostella [3] and in the test on Spodoptera litura [4] was 100% in each case.

Take `O=C(c1c(F)cccc1F)N1CN=CN(c2cc(Cl)c(F)c(Cl)c2F)C1=O` [V-4, 1-(3,5-dichloro-2,4-difluorophenyl)-3-(2,6-difluorobenzoyl)-3,4-dihydro-1,3,5-triazin-2(1H)-one]: the pest or weed control at 100 ppm in the test on Plutella xylostella [2] and in the test with Spodoptera litura [4] was 100% throughout. Further, the pest or weed control at 25 ppm in the test on Plutella xylostella [3] amounted to 95%.
